{"source": "patent US20180355033A1", "about": "“ANTIBODIES, COMPOUNDS AND SCREENS FOR IDENTIFYING AND TREATING CACHEXIA OR PRE-CACHEXIA” (Dana-Farber Cancer Institute, Inc., priority 2015, published 2018)", "molecules": {"B1": {"name": "A8: recombinant RAGE ligand of the S100 family (protein, UniProt P05109 1-93, looked up)", "Protein S100-A8": "MLTELEKALNSIIDVYHKYSLIKGNFHAVYRDDLKKLLETECPQYIRKKGADVWFKELDINTDGAVNFQEFLILVIKMGVAAHKKSHEESHKE"}, "B2": {"name": "A9: recombinant RAGE ligand of the S100 family (protein, UniProt P06702 1-114, looked up)", "Protein S100-A9": "MTCKMSQLERNIETIINTFHQYSVKLGHPDTLNQGEFKELVRKDLQNFLKKENKNEKVIEHIMEDLDTNADKQLSFEEFIMLMARLTWASHEKMHEGDEGPGHHHKPGLGEGTP"}, "B3": {"name": "S100B: recombinant S100 family RAGE ligand (protein, UniProt P04271 2-92, looked up)", "Protein S100-B": "SELEKAMVALIDVFHQYSGREGDKHKLKKSELKELINNELSHFLEEIKEQEVVDKVMETLDNDGDGECDFQEFMAFVAMVTTACHEFFEHE"}, "B4": {"name": "HMGB1: high mobility group box 1, RAGE ligand (protein, UniProt P09429 1-215, looked up)", "High mobility group protein B1": "MGKGDPKKPRGKMSSYAFFVQTCREEHKKKHPDASVNFSEFSKKCSERWKTMSAKEKGKFEDMAKADKARYEREMKTYIPPKGETKKKFKDPNAPKRPPSAFFLFCSEYRPKIKGEHPGLSIGDVAKKLGEMWNNTAADDKQPYEKKAAKLKEKYEKDIAAYRAKGKPDAAKKGVVKAEKSKKKKEEEEDEEDEEDEEEEEDEEDEDEEEDDDDE"}, "B5": {"name": "S100 A7: recombinant RAGE ligand of the S100 family (protein, UniProt P31151 2-101, looked up)", "Protein S100-A7": "SNTQAERSIIGMIDMFHKYTRRDDKIEKPSLLTMMKENFPNFLSACDKKGTNYLADVFEKKDKNEDKKIDFSEFLSLLGDIATDYHKQSHGAAPCSGGSQ"}}, "key": {"RAGE [1]": {"target": "T1, RAGE (Homo sapiens, UniProt Q15109)", "T1 sequence (Q15109 23-404)": "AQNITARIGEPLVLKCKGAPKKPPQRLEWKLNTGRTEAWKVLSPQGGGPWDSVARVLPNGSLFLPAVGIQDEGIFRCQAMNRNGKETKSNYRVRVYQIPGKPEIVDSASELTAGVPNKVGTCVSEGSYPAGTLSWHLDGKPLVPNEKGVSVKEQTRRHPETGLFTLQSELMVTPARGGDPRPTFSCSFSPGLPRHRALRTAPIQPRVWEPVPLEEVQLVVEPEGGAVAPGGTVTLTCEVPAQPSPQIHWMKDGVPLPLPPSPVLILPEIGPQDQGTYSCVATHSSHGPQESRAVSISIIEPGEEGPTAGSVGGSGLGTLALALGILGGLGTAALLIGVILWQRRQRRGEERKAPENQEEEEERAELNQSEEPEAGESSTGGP", "settings": "cited from earlier work"}, "A-beta brain entry": {"system": "A-beta brain entry", "settings": "in vivo; cited from earlier work"}, "HSkM": {"system": "HSkM", "assay": "Functional testing in Cachexia Assay (HSkM functional assay)", "format": "cell-based, human", "settings": "FIG. 25", "from_the_text": "This implies that the modeled Ab epitope is likely a functional focused target for Ab therapy and that this is the basis for further small molecule therapeutic development for cancer cachexia and other RAGE mediated diseases."}, "V domain of RAGE": {"target": "V domain of RAGE (Homo sapiens, UniProt Q15109)", "sequence (Q15109 23-116 limits assumed)": "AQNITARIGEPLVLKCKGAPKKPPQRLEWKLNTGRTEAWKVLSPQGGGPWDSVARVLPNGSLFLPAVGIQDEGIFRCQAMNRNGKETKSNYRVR", "settings": "cited from earlier work"}, "RAGE-expressing cells": {"system": "RAGE-expressing cells", "settings": "RAGE-expressing cells in vitro and mouse brain in vivo; cited from earlier work"}, "rat model of ICH": {"system": "rat model of ICH", "settings": "cited from earlier work"}, "[2]": {"system": "Primary human myoblast differentiated into terminal myotubes", "assay": "Cachexia induction by recombinant S100/HMGB1 ligands, myosin HC in-cell Western", "format": "cell-based", "settings": "recombinant ligand applied each day for 3 days", "description": "FIGS. 1-3 illustrate the effect of various proteins of the S100 family, as well as HMGB1, as cachexia inducers when compared with cachexia-inducing media. Primary human myoblast were plated and differentiated into terminal myotubes as previously described. Recombinant ligands were prepared at the same dose curve in Hanks Balance Salt Solution (buffer) and applied 1:2 v:v to fresh maintenance media each day for 3 days. Cells were assessed for myosin HC content by in-cell Western staining as previously described."}, "RAGE [3]": {"target": "T1, RAGE", "assay": "Direct immunoprecipitation with RAGE", "format": "binding", "settings": "direct immunoprecipitation experiments"}}, "note": "Entries after “also recorded” stand apart in the source; their conditions may differ.", "data": [{"molecule": "CCN(CC)CCOc1cccc(Nc2nc(C)cc(-c3ccc(OCCC4CCCCC4)cc3)n2)c1", "note": "[Compound 53, 4-(4-(2-cyclohexylethoxy)phenyl)-N-(3-(2-(diethylamino)ethoxy)-phenyl)-6-methylpyrimidin-2-amine]", "values": [{"measurement": "affinity to ligand", "setting": "RAGE [1]", "result": "highest affinity to ligand"}]}, {"molecule": "CCN(CC)CCOc1cccc(Nc2nc(-c3ccc(Cl)cc3)cc(-c3ccc(Cl)cc3)n2)c1", "note": "[Compound 59, 4,6-bis(4-chlorophenyl)-N-(3-(2-(diethylamino)ethoxy)phenyl)-pyrimidin-2-amine]", "values": [{"measurement": "affinity to ligand", "setting": "RAGE [1]", "result": "highest affinity to ligand"}, {"measurement": "inhibition (not further specified)", "setting": "RAGE [1]", "result": "most significant inhibition"}, {"measurement": "A-beta brain entry inhibition", "setting": "A-beta brain entry", "result": "most potent A-beta brain entry inhibition"}]}, {"molecule": "CCN(CC)CCOc1ccccc1Nc1nc(-c2ccc(Cl)cc2)cc(-c2ccc(Cl)cc2)n1", "note": "[Compound 60, 4,6-bis(4-chlorophenyl)-N-(2-(2-(diethylamino)ethoxy)phenyl)-pyrimidin-2-amine]", "values": [{"measurement": "affinity to ligand", "setting": "RAGE [1]", "result": "highest affinity to ligand"}, {"measurement": "in vitro activity", "setting": "RAGE [1]", "result": "best in vitro activity"}]}, {"molecule": "CCCCCC(=Cc1ccccc1)CN(CCc1c[nH]c2ccccc12)C(=O)c1ccc(Cl)c([N+](=O)[O-])c1", "note": "[FPS3]", "values": [{"measurement": "inhibition of cachexia phenotype", "setting": "HSkM", "result": "inhibits cachexia phenotype"}]}, {"molecule": "O=C(c1ccc(Cl)cc1)N(Cc1ccccc1)C1CCCCC1", "note": "[FPS-ZM1]", "values": [{"measurement": "blocking of Aβ binding to the V domain of RAGE", "setting": "V domain of RAGE", "result": "blocked A13 binding to the V domain of RAGE"}, {"measurement": "inhibition of Aβ40- and Aβ42-induced cellular stress", "setting": "RAGE-expressing cells", "result": "inhibited A1340- and A1342-induced cellular stress"}, {"measurement": "BBB damage, brain edema, motor dysfunction, nerve fiber injury", "setting": "rat model of ICH; rat ICH model, FPS-ZM1 administration", "result": "significant improvements of BBB damage, brain edema, motor dysfunction, and nerve fiber injury"}, {"measurement": "FeCl2-induced RAGE and nuclear factor κB p65 upregulation", "setting": "rat model of ICH; rat, in vivo", "result": "reversed FeCl2-induced RAGE and nuclear factor κB p65 upregulation"}]}, {"molecule": "S100A8/A9: recombinant S100A8/A9 (Calprotectin)", "values": [{"measurement": "induction of the cachectic phenotype (myosin HC content)", "setting": "[2]", "result": "capable of inducing the cachexia phenotype"}, {"measurement": "direct binding to RAGE", "setting": "RAGE [3]", "result": "directly bind to RAGE"}]}, {"molecule": "B1", "values": [{"measurement": "induction of the cachectic phenotype (myosin HC content)", "setting": "[2]", "result": "inducers of the cachectic phenotype"}]}, {"molecule": "B2", "values": [{"measurement": "induction of the cachectic phenotype (myosin HC content)", "setting": "[2]", "result": "inducers of the cachectic phenotype"}]}, {"molecule": "B3", "values": [{"measurement": "induction of the cachectic phenotype (myosin HC content)", "setting": "[2]", "result": "little or no activity in inducing cachexia; also recorded: do not induce precachexia and/or cachexia"}]}, {"molecule": "B4", "values": [{"measurement": "induction of the cachectic phenotype (myosin HC content)", "setting": "[2]", "result": "do not induce precachexia and/or cachexia; also recorded: not cachexogenic in muscle; also recorded: cannot; also recorded: does not induce the cachectic phenotype"}]}, {"molecule": "B5", "values": [{"measurement": "induction of the cachectic phenotype (myosin HC content)", "setting": "[2]", "result": "inducers of the cachectic phenotype"}, {"measurement": "induction of the cachectic phenotype (myosin HC content)", "setting": "[2]; listed as S100A7", "result": "capable of inducing the cachexia phenotype"}, {"measurement": "direct binding to RAGE", "setting": "RAGE [3]", "result": "directly bind to RAGE"}]}]}
